We go through 4 compounds from patent US8399482B2, “6-substituted isoquinolines and isoquinolinones” (Sanofi, priority 2008, dated 2013).

SMILES strings stand for the structures.

For the test, the target named is T1, human recombinant ROCK II (Homo sapiens, UniProt O75116).
T1 construct: recombinant human ROCK-II residues 11-552; His6 (N); purchased Millipore GmbH, Schwalbach, Germany
T1 sequence (O75116 11-552): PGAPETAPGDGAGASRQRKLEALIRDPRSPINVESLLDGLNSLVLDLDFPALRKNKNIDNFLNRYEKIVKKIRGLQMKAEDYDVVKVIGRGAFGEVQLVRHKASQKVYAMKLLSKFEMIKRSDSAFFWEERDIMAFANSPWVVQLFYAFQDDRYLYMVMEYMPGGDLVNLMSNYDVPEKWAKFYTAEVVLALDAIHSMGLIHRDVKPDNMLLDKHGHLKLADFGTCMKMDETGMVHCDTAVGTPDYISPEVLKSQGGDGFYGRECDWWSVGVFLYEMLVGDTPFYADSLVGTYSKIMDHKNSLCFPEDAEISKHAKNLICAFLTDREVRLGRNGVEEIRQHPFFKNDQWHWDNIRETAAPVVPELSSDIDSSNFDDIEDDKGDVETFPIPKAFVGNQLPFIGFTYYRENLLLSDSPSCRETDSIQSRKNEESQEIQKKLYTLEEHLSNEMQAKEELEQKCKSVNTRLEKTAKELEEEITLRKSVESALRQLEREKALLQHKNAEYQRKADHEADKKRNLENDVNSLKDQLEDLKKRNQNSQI
As to the kind of experiment: Determination of Rho kinase inhibition (ROCK II, Caliper peptide phosphorylation assay). The class given is biochemical. As to conditions: respective form (salt or free base) as obtained in the examples, 60 min at 32° C. How it is done: To measure Rho-kinase inhibition, IC50 values were determined according to the following protocol:
Active human recombinant ROCK II (N-terminal His6-tagged recombinant human ROCK-II residues 11-552) was purchased from Millipore GmbH, Schwalbach, Germany. The peptide substrate, Fluorescein-[…]-COOH, was obtained from JPT Peptide Technologies, Berlin, Germany. Adenosine-5′-triphosphate (ATP), bovine serum albumine (BSA), dimethylsulphoxide (DMSO), 4-(2-hydroxyethyl)piperazine-1-ethanesulfonic acid (Hepes), Brij-35, dithiothreitol (DTT) and Pluronic F-68 were purchased from Sigma-Aldrich, Munich, Germany. Tris(hydroxymethyl)-aminomethane (Tris), magnesium chloride, NaOH, 1M HCl and EDTA were obtained from Merck Biosciences, Darmstadt, Germany. “Complete” protease inhibitor was from Roche Diagnostics, Mannheim, Germany. Test compounds were diluted to the appropriate concentrations in buffer 1 (25 mM Tris-HCl, pH 7.4, 5 mM MgCl2, 2 mM DTT, 0.02% (w/v) BSA, 0.01% Pluronic F-68 and 3% DMSO). The ROCK II enzyme was diluted to a concentration of 100 ng/mL in buffer 2 (25 mM Tris-HCl, pH 7.4, 5 mM MgCl2, 2 mM DTT and 0.02% (w/v) BSA). The peptide substrate and ATP were diluted to concentrations of 3 μM and 120 μM, respectively, in the buffer 2. Two μl of the compound solution were mixed with 2 μl of the diluted enzyme in a 384-well small volume microtiter plate (Greiner, Bio-One, Frickenhausen, Germany), and the kinase reaction was initiated by addition of 2 μl of the solution containing peptide substrate and ATP. After 60 min incubation at 32° C., the reaction was stopped by addition of 20 μl of a solution containing 100 mM Hepes-NaOH, pH 7.4, 0.015% (v/v) Brij-35, 45 mM EDTA and 0.227% chip coating reagent 1 (Caliper Lifescience Inc, Hopkinton, Mass.). Phosphorylation of the substrate peptide was then detected on a Caliper 3000 instrument essentially as described by Pommereau et al (J. Biomol. Screening 2004, 9(5), 409-416). Separation conditions were as follows: Pressure −1.3 psi, upstream voltage −1562 V, downstream voltage −500 V, sample sip time 200 ms. Positive controls (buffer 1 instead of compound) and negative controls (buffer 1 instead of compound and buffer 2 instead of ROCK II) were run in parallel on each plate.
The following products/compounds were tested in said assay by using the respective form (salt or free base) obtained as in the examples described above and the following activities were measured
As to `CCC(NCC1CC1)[C@]1(CC)CC[C@H](Oc2cc3cc[nH]c(=O)c3cc2Cl)CC1` (stereo partly drawn) [Example 85, cis-7-Chloro-6-{4-[1-(cyclopropylmethyl-amino)-propyl]-4-ethyl-cyclohexyloxy}-2H-isoquinolin-1-one], the IC50 was 100 to 1000 nM. Next, `CC[C@]1(C(C)N)CC[C@@H](Oc2c(F)cc3cnccc3c2C)CC1` (stereo partly drawn) [Example 80, cis-1-[1-Ethyl-4-(7-fluoro-5-methyl-isoquinolin-6-yloxy)-cyclohexyl]-ethylamine]: 100 to 1000 nM; `CCC(N)[C@]1(CCCC(F)(F)F)CC[C@H](Oc2cc3cc[nH]c(=O)c3cc2Cl)CC1` (stereo partly drawn) [Example 66, cis-6-[4-(1-Amino-propyl)-4-(4,4,4-trifluoro-butyl)-cyclohexyloxy]-7-chloro-2H-isoquinolin-1-one]: at most 10 nM.

Turning to `CC[C@]1(C(C)N)CC[C@@H](Oc2ccc3cnccc3c2Cl)CC1` (stereo partly drawn) [Example 84, cis-1-[4-(5-Chloro-isoquinolin-6-yloxy)-1-ethyl-cyclohexyl]-ethylamine], the IC50 was 100 to 1000 nM.
